Key:
[1] = system: pN1-exon6-Fluc-3′UTR long construct; assay: Inhibition of KCl-induced translation of the ex6-Fluc-3′UTRlong construct; assay type: cell-based, rat; conditions: for prevention of KCl-induced increase in translation of pN1-exon6-Fluc-3′UTR long: 30 min pre-treatment prior 3 h 20 mM KCl, rapamycin 20 nM, U0126 50 μM, KN62 20 μM, GF 50 nM, Aurora A inhibitor 10 μM, PP2 20 μM
From the text: The present invention can be used not only to identify compounds able to increase BDNF translation, but also to screen for potential inhibitors of BDNF protein production. To this aim a series of vectors were constructed which recapitulate the physiological regulation of BDNF translation in that the firefly luciferase gene was flanked both by 5′UTR regions as well as 3′UTR. These constructs included:
Inhibitors of 5′UTR regulation are: rapamycin (rap)=mTOR inhibitor (Takei, Inamura et al. 2004); U0126=MEK inhibitor (Kanhema, Dagestad et al. 2006); GF=PKC inhibitor (Heikkila, Jalava et al. 1993).
Inhibitors of 3′UTR regulation: KN62=CaMKII inhibitor (Lu, Hidaka et al. 1996); AuA=Aurora A inhibitor (Soncini, Carpinelli et al. 2006) and PP2=Src tyrosine kinase inhibitor (Perkinton, Sihra et al. 1999).
Aurora kinase A inhibitor (PHA-680632) was a gift from Nerviano Medical Sciences S.r.l. (Milan, Italy); PP2 (1-tert-butyl-3-(4-chlorophenyl)-1H-pyrazolo[3-4]pyrimidin-4-amine), rapamycin was purchased from Ascent Scientific (Bristol, UK), Bisindolylmaleimide I (2-[1-(3-dimethylaminopropyl)-1H-indol-3-yl]-3-(1H-indol-3yl)-maleimide, GF 109203X, Gö 6850), KN62 (1-[N,O-bis-5-isoquinolinesulfonyl)-N-methyl-L-tyrosyl]-4-phenylpiperazine), U0126 (1,4-diamino-2,3-dicyano-1,4-bis(2-aminophenylthio)butadiene), and U0124 (1,4-Diamino-2,3-dicyano-1,4-bis(methylthio)butadiene) from Calbiochem (Damstadt, Germany).
Relative luciferase units (RLU) describe in absolute values for the Fluc/Rluc (F/R) ratio obtained from each condition—basal, 3 h of 20 mM KCl, 30 min of treatment—rapamycin 20 nM, U0126 50 μM, KN62 20 μM, GF 50 nM, Aurora A inhibitor 10 μM or PP2 20 μM, prior 3 h of depolarization. A value of 1.0 was assumed for the basal condition. The represented data (mean+standard error) corresponds to three independent experiments in quadruplicate ***, P<0.001; **, P<0.01; *, P<0.05, One Way Anova followed by a multiple comparison versus Fluc construct procedure with Holm-Sidak's method.

rat BDNF 5′UTR exon 1 = assay: Dual luciferase assay, pN1-exon1-Fluc in SH-SY5Y cells; assay type: cell-based; conditions: undifferentiated SH-SY5Y, 24 h after transfection; KCL 50 mM, BDNF 50 ng/ml, GLU 20 μM, NE 50 μM
Method: (§3) Plasmids were transfected into SH-SY5Y cells using lipofectamine 2000 (Invitrogen) to obtain a transient transfection. The relative quantity of DNA to lipofectamine has been determined and the optimal ratio was found at 0.2 μg of DNA and 0.5 μl of lipofectamine for each well of a 96 multiwell plate. At the time of transfection SH-SY5Y cells were around 70-75% of confluency. According to the Promega protocol for luciferase activity measurements, each construct-containing Fluc was transfected together with the normalizing Rluc construct with a 10:1 ratio (0.2 μg Fluc containing vector together with 0.02 μg of pN1-Rluc vector). The DNA (0.2 μg) was mixed with 25 μl of native MEM medium and incubated for 5 minutes at room temperature. The two solutions were then mixed and incubated for 20 minutes at room temperature to allow the formation of DNA-containing micelles. Then, 50 μl of such solution were added in each well to cells and incubated for 24 h at 37° C. After 24 h transfection, the medium was removed and replaced with fresh culture medium.
(§4) To determine the effects of receptors activation on translation controlled by the different BDNF 5′UTR sequences, cells were treated for 3 hours with 50 mM KCl to induce generalized cell depolarization.
(§5) Luciferase assay was performed according to the manufacturer's instructions (Promega). At the time of luciferase assay, the growth medium was removed from the cultured cells and a sufficient volume of PBS 1× was applied to wash the surface of the culture vessel. Then, the PBS 1× solution was completely removed and the cells lysis was started by adding 20 μl of PLB (passive lysis buffer) into each well. After adding the PLB solution, the culture plate was placed on an orbital shaker with gentle shaking at room temperature for 15 minutes to cover uniformly the cell monolayer with PLB. After lysis, 100 μl of Luciferase Assay Reagent II (LARII) were dispensed in each well and Firefly luciferase activity was measured using the Glo Max Multi luminometer with two injectors (Promega Corporation).
(§6) After quantifying the Firefly luminescence, this reaction was quenched and simultaneously, the Renilla luciferase reaction was initiated by adding 100 μl Stop & Glo Reagent (Promega) to the same well. Then, Renilla luciferase activity was measured using the Glo Max Multi luminometer with two injectors (Promega Corporation).
(§7) One day prior transfection, undifferentiated neuro-blastoma SH-SY5Y cells were seeded into a 96-well white plate with clear bottom (PBI International) at a confluency of 50-60% and cultured overnight. Plasmids containing the different BDNF 5′UTR exons were then transiently transfected into SH-SY5Y cells using Lipofectamine™ 2000 (Invitrogen) at high cell density (70-75%), according to the manufacturer's protocol. […]

rat BDNF 5′UTR exon 2B = assay: Dual luciferase assay, pN1-exon2B-Fluc in SH-SY5Y cells; assay type: cell-based; conditions: undifferentiated SH-SY5Y, 24 h after transfection; KCL 50 mM, BDNF 50 ng/ml, GLU 20 μM, NE 50 μM
Method: as §3, §4, §5, §6, §7

rat BDNF 5′UTR exon 3 = assay: Dual luciferase assay, pN1-exon3-Fluc in SH-SY5Y cells; assay type: cell-based; conditions: undifferentiated SH-SY5Y; KCL 50 mM
Method: (§8) Plasmids were transfected into SH-SY5Y cells using lipofectamine 2000 (Invitrogen) to obtain a transient transfection. The relative quantity of DNA to lipofectamine has been determined and the optimal ratio was found at 0.2 μg of DNA and 0.5 μl of lipofectamine for each well of a 96 multiwell plate. At the time of transfection SH-SY5Y cells were around 70-75% of confluency. According to the Promega protocol for luciferase activity measurements, each construct-containing Fluc was transfected together with the normalizing Rluc construct with a 10:1 ratio (0.2 μg Fluc containing vector together with 0.02 μg of pN1-Rluc vector). The DNA (0.2 μg) was mixed with 25 μl of native MEM medium and incubated for 5 minutes at room temperature. […]
(§9) Luciferase assay was performed according to the manufacturer's instructions (Promega). […] After lysis, 100 μl of Luciferase Assay Reagent II (LARII) were dispensed in each well and Firefly luciferase activity was measured using the Glo Max Multi luminometer with two injectors (Promega Corporation).
(§10) After quantifying the Firefly luminescence, this reaction was quenched and simultaneously, the Renilla luciferase reaction was initiated by adding 100 μl Stop & Glo Reagent (Promega) to the same well. Then, Renilla luciferase activity was measured using the Glo Max Multi luminometer with two injectors (Promega Corporation). […]

rat BDNF 5′UTR exon 4 = assay: Dual luciferase assay, pN1-exon4-Fluc in SH-SY5Y cells; assay type: cell-based; conditions: undifferentiated SH-SY5Y; KCL 50 mM, BDNF 50 ng/ml, GLU 20 μM, NE 50 μM, 5-HT 50 μM
Method: as §3, §4, §5, §6, §7

BDNF 3′UTR-long = assay: Luciferase assay, pN1-Fluc-3′long in SH-SY5Y cells; assay type: cell-based, rat; conditions: transfected SHSY-5Y; KCl 50 mM, GLU 20 μM, DHPG 50 μM, AMPA 30 μM, NMDA 30 μM, AcH 30 μM, NE 50 μM, DOPA 40 μM, 5-HT 50 μM, BDNF 50 ng/μl
Method: (§1) Basal and drug-induced translation of a luciferase reporter gene driven by BDNF short and long 3′UTR or coding region (CDS) sequences were measured.
(§2) BDNF ([…]) was specifically employed for the stimulation of the 3′UTR long containing plasmid and NT3 ([…]) for 3′UTR short containing plasmid.

[2] = system: BDNF 5′UTR splice variants; assay: Dual luciferase assay, response of BDNF 5′UTR splice variants to agonists (collective statements); conditions: undifferentiated SH-SY5Y; for translation of the other BDNF transcripts (other than exon2C): DHPG 50 μM, AMPA 30 μM, NMDA 30 μM
Method: as §3, §4, §5, §6, §7

[3] = system: SH-SY5Y human neuroblastoma cells; assay: MTT viability assay; assay type: cell-based; conditions: 3 h; ACh 10 μM, NE 50 uM, DOPA 40 μM, BDNF and NT3 both 50 ng/ml
Method: Using a 96-well plate 100 μl of SHSY-5Y cells were distributed per well, maintaining them overnight at 37° C. in a 5% CO2-humified incubator. […] After that, 20 μl of aseptically prepared 5 mg/mL MTT was added, adding it also to an additional quadruplicate of wells without cells, as an internal control. The cells were again incubated at 37° C. this time for 2 h, allowing the formation of formazan crystals by the mitochondrial dehydrogenase of viable cells. Afterwards, the media was carefully removed, and the formazan crystals were solubilised by adding 200 μl of MTT solvent per well, a solution that contains acidified isopropanol (4 mM HCl and 0.1% Nondet P-40 in isopropanol). The crystals were further dissolved by gently pipetting the solution up and down being the resulting purple solution spectrophotometrically measured at 570 nm. An increased absorbance can therefore be directly correlated to the cell number, allowing one to determine the cellular viability after a specific treatment. Since the method is dependent on the physiological state of the cells, the assay was always performed after checking the cellular morphology prior treatment. Moreover, two controls were performed: (1) untreated cells, an internal control to verify the drug-dependent effect; and (2) KCl 200 mM treated cells, in which a cytotoxic concentration was used, thus allowing us to verify the assay fidelity.

rat BDNF 5′UTR exon 2C = assay: Dual luciferase assay, pN1-exon2C-Fluc in SH-SY5Y cells; assay type: cell-based; conditions: undifferentiated SH-SY5Y; GLU 20 μM, NMDA 30 μM, NE 50 μM
Method: as §3, §4
Luciferase assay was performed according to the manufacturer's instructions (Promega). At the time of luciferase assay, the growth medium was removed from the cultured cells and a sufficient volume of PBS 1× was applied to wash the surface of the culture vessel. […] After lysis, 100 μl of Luciferase Assay Reagent II (LARII) were dispensed in each well and Firefly luciferase activity was measured using the Glo Max Multi luminometer with two injectors (Promega Corporation).
as §10

rat BDNF 5′UTR exon 8 = assay: Dual luciferase assay, pN1-exon8-Fluc in SH-SY5Y cells; assay type: cell-based; conditions: undifferentiated SH-SY5Y; BDNF 50 ng/ml, GLU 20 μM, 5-HT 50 μM
Method: as §8, §9, §10

BDNF 3′UTR-short = assay: Luciferase assay, pN1-Fluc-3′short in SH-SY5Y cells; assay type: cell-based, rat; conditions: transfected SHSY-5Y; GLU 20 μM
Method: as §1, §2

rat BDNF 5′UTR exon 7 = assay: Dual luciferase assay, pN1-exon7-Fluc in SH-SY5Y cells; assay type: cell-based; conditions: undifferentiated SH-SY5Y; NE 50 μM
Method: as §8, §9, §10

N#CC(=C(N)Sc1ccccc1N)C(C#N)=C(N)Sc1ccccc1N [U0126, 1,4-diamino-2,3-dicyano-1,4-bis(2-aminophenylthio)butadiene]
prevention of KCl-induced increase in translation of pN1-exon6-Fluc-3′UTR long [1]: completely prevents

[Cl-].[K+] [KCl]
translation of exon1-containing transcripts (ratio F-luc/R-Luc) (rat BDNF 5′UTR exon 1): significantly increase
translation of exon 2B-containing transcripts (ratio F-luc/R-Luc) (rat BDNF 5′UTR exon 2B): significantly increase
expression of exon 3-containing plasmid (ratio F-luc/R-Luc) (rat BDNF 5′UTR exon 3): induced
translation of exon 4-containing transcripts (ratio F-luc/R-Luc) (rat BDNF 5′UTR exon 4): significantly increase
translation of 3′UTR-long-containing transcripts (BDNF 3′UTR-long): slightly but not significant increase
increase in translation of pN1-exon6-Fluc-3′UTR long (Fluc/Rluc ratio, basal = 1.0) ([1]; end of 3 h depolarization with 20 mM KCl): three-fold increase

NCCc1c[nH]c2ccc(O)cc12 [Serotonin]
translation of every BDNF exons-containing plasmid, with the exception of those containing exon 2A, 4 and 8 ([2]; 5-HT 50 μM): able to increase the translation

CN(C)CCCn1cc(C2=C(c3c[nH]c4ccccc34)C(=O)NC2=O)c2ccccc21 [GF, 2-[1-(3-dimethylaminopropyl)-1H-indol-3-yl]-3-(1H-indol-3yl)-maleimide]
prevention of KCl-induced increase in translation of pN1-exon6-Fluc-3′UTR long [1]: not

NCCc1ccc(O)c(O)c1 [Dopamine]
cell survival (MTT viability), neurotrophic effect [3]: small increase in cell survival

CN[C@H](CC(=O)O)C(=O)O [NMDA]
expression of exon 2C containing plasmid (ratio F-luc/R-Luc) (rat BDNF 5′UTR exon 2C): enhancement
translation of the other BDNF transcripts (other than exon2C) [2]: not stimulated

CC(C)(C)n1nc(-c2ccc(Cl)cc2)c2c(N)ncnc21 [PP2, 1-tert-butyl-3-(4-chlorophenyl)-1H-pyrazolo[3-4]pyrimidin-4-amine]
prevention of KCl-induced increase in translation of pN1-exon6-Fluc-3′UTR long [1]: completely prevents

CN([C@@H](Cc1ccc(OS(=O)(=O)c2cccc3cnccc23)cc1)C(=O)N1CCN(c2ccccc2)CC1)S(=O)(=O)c1cccc2cnccc12 [KN62]
prevention of KCl-induced increase in translation of pN1-exon6-Fluc-3′UTR long [1]: completely prevents

CCc1cccc(CC)c1NC(=O)N1Cc2n[nH]c(NC(=O)c3ccc(N4CCN(C)CC4)cc3)c2C1 [Aurora A inhibitor, PHA-680632]
prevention of KCl-induced increase in translation of pN1-exon6-Fluc-3′UTR long [1]: completely prevents

Cc1o[nH]c(=O)c1CC(N)C(=O)O (centres unmarked) [AMPA]
translation of the other BDNF transcripts (other than exon2C) [2]: not stimulated

N[C@@H](CCC(=O)O)C(=O)O [Glutamate, Glutammate]
translation of exon1-containing transcripts (ratio F-luc/R-Luc) (rat BDNF 5′UTR exon 1): significantly increase
translation of exon 2B-containing transcripts (ratio F-luc/R-Luc) (rat BDNF 5′UTR exon 2B): significantly increase
expression of exon 2C containing plasmid (ratio F-luc/R-Luc) (rat BDNF 5′UTR exon 2C): able to induce the expression
translation of exon 4-containing transcripts (ratio F-luc/R-Luc) (rat BDNF 5′UTR exon 4): significantly increase
response of exon 8-containing plasmid (ratio F-luc/R-Luc) (rat BDNF 5′UTR exon 8): responsive
translation of 3′UTR-short-containing transcripts (BDNF 3′UTR-short): striking increase

NC[C@H](O)c1ccc(O)c(O)c1 [Norepinephrine]
translation of exon1-containing transcripts (ratio F-luc/R-Luc) (rat BDNF 5′UTR exon 1): significantly increase
translation of exon 2B-containing transcripts (ratio F-luc/R-Luc) (rat BDNF 5′UTR exon 2B): significantly increase
expression of exon 2C containing plasmid (ratio F-luc/R-Luc) (rat BDNF 5′UTR exon 2C): increased
translation of exon 4-containing transcripts (ratio F-luc/R-Luc) (rat BDNF 5′UTR exon 4): significantly increase
exon7 reporter expression (ratio F-luc/R-Luc) (rat BDNF 5′UTR exon 7): increased
cell survival (MTT viability), neurotrophic effect [3]: small increase in cell survival

N[C@H](C(=O)O)c1cc(O)cc(O)c1 [DHPG]
translation of the other BDNF transcripts (other than exon2C) [2]: not stimulated

B1: Brain-derived neurotrophic factor (protein, UniProt P23560 19-247, looked up)
Neurotrophic factor BDNF …: APMKEANIRGQGGLAYPGVRTHGTLESVNGPKAGSRGLTSLADTFEHVIEELLDEDQKVRPNEENNKDADLYTSRVMLSSQVPLEPPLLFLLEEYKNYLDAANMSMRVRRHSDPARRGELSVCDSISEWVTAADKKTAVDMSGGTVTVLEKVPVSKGQLKQYFYETKCNPMGYTKEGCRGIDKRHWNSQCRTTQSYVRALTMDSKKRIGWRFIRIDTSCVCTLTIKRGR
notes: growth and trophic factor of the neurotrophin family, used as agonist at 50 ng/ml
translation of exon1-containing transcripts (ratio F-luc/R-Luc) (rat BDNF 5′UTR exon 1): significantly increase
translation of exon 2B-containing transcripts (ratio F-luc/R-Luc) (rat BDNF 5′UTR exon 2B): significantly increase
translation of exon 4-containing transcripts (ratio F-luc/R-Luc) (rat BDNF 5′UTR exon 4): significantly increase
response of exon 8-containing plasmid (ratio F-luc/R-Luc) (rat BDNF 5′UTR exon 8): responsive
cell survival (MTT viability), neurotrophic effect [3]: small increase in cell survival

B2: Neurotrophin-3 (protein, UniProt P20783 139-257, looked up)
Neurotrophin-3: YAEHKSHRGEYSVCDSESLWVTDKSSAIDIRGHQVTVLGEIKTGNSPVKQYFYETRCKEARPVKNGCRGIDDKHWNSQCKTSQTYVRALTSENNKLVGWRWIRIDTSCVCALSRKIGRT
notes: neurotrophin, used at 50 ng/ml
cell survival (MTT viability), neurotrophic effect [3]: small increase in cell survival

Reference: patent publication US20130224754A1, “METHOD FOR THE SELECTION OF COMPOUNDS USEFUL FOR THE TREATMENT OF PSYCHIATRIC AND NEURODEGENERATIVE DISEASES” (UNIVERSITA' DEGLI STUDI DI TRIESTE, priority 2010, published 2013)
